For test [1], the target named is T1, human ENPP1 (Homo sapiens, UniProt P22413).
T1 construct: made in house
T1 sequence (P22413 1-925): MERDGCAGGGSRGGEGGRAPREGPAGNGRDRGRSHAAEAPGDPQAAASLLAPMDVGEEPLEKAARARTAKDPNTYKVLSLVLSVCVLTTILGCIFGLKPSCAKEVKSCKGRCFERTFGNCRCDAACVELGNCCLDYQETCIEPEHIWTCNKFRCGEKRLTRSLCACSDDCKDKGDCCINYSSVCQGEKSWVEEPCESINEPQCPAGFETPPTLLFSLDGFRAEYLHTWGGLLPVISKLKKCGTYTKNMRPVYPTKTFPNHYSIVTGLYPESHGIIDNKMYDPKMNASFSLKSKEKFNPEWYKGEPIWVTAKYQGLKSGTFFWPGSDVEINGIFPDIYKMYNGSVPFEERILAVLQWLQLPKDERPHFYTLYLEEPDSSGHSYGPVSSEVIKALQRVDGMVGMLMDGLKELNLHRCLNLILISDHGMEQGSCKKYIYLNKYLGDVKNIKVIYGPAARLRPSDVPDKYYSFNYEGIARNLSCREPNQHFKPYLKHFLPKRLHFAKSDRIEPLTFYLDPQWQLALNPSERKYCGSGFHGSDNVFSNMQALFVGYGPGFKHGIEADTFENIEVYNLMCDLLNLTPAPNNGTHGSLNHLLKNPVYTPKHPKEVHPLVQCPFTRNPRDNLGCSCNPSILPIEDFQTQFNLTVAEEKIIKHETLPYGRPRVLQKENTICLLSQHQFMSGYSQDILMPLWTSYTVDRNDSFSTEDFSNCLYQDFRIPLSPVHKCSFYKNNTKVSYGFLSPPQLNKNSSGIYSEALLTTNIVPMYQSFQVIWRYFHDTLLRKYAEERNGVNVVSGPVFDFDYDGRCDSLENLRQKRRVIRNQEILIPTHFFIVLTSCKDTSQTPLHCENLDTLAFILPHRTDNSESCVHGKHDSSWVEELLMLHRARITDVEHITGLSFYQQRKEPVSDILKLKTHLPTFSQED
The experiment in a line: ENPP1 assay with ATP substrate (Transcreener AMP2/GMP2 TR-FRET). The format is biochemical. The settings on record: 1 hour at room temperature. An outline of the steps: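 Reaction ran 1 h at room temperature in pH 7.5 Tris with MgCl2, TCEP, Tween 20 and 1% DMSO. ATP was added as a 300 nM stock and enzyme as an 8.5 μM stock. After EDTA stop, AMP was read by TR-FRET tracer displacement. Percent inhibition used enzyme/no-enzyme controls; IC50 was fitted with a variable slope.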
On the technique in general: TR-FRET usually uses a lanthanide donor and a delayed reading to cut background.

For test [2], the target named is T2, ENPP3 (Homo sapiens, UniProt O14638).
T2 sequence (O14638 1-875): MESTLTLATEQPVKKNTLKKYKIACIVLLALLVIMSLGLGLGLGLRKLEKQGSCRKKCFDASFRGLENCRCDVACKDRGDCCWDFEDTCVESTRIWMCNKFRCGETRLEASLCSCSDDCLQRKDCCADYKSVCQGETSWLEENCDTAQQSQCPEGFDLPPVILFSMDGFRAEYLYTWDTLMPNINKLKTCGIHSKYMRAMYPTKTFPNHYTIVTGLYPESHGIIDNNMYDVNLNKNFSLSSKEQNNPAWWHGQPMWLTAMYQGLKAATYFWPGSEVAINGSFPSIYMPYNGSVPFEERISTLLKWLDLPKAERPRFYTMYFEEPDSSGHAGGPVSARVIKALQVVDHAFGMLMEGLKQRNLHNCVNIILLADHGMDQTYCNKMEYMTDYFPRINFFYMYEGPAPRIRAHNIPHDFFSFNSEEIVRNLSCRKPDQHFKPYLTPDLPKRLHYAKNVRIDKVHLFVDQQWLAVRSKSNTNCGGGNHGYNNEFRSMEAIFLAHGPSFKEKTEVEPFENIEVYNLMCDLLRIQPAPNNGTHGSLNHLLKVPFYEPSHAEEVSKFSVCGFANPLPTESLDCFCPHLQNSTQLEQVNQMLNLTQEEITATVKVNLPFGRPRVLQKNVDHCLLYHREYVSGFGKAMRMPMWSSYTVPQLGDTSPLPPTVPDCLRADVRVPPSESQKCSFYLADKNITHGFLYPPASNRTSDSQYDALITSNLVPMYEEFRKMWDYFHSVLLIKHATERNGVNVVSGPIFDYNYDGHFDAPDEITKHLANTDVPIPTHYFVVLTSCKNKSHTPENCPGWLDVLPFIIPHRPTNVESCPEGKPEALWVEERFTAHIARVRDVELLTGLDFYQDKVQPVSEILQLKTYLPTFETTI
The test is described as follows: ENPP3 Km ATP assay. To be noted: ATP at Km. The format is biochemical.

Where only a bound is given, the exact number is not on record here.

Broadly, the IC50 is the concentration needed to halve the response being measured. A higher IC50 goes with lower potency. On to `Cc1noc2ncnc(NCc3ccc(S(N)(=O)=O)cc3)c12` [Example 2.59, 4-(((3-Methylisoxazolo[5,4-d]pyrimidin-4-yl)amino)methyl)benzenesulfonamide], for which the IC50 in test [1] and in test [2] was 1 to 20 µM throughout.
For `Cn1ncc2c(NCc3ccc(S(N)(=O)=O)cc3)ccnc21` [Example 2.60, 4-(((1-Methyl-1H-pyrazolo[3,4-b]pyridin-4-yl)amino)methyl)benzenesulfonamide], the half-maximal inhibitory concentration (IC50) in test [1] was less than 0.1 µM; in test [2], 0.1 to 1 µM.
Regarding `Cn1ncc2c(NCc3ccc(S(N)(=O)=O)cc3Cl)ccnc21` [Example 2.61, 3-Chloro-4-(((1-methyl-1H-pyrazolo[3,4-b]pyridin-4-yl)amino)methyl)benzenesulfonamide], the IC50 in test [1] and in test [2] was 0.1 to 1 µM throughout.
With `Cn1ncc2c(NCc3ccc(S(N)(=O)=O)c(C(F)(F)F)c3)ccnc21` [Example 2.62, 4-(((1-Methyl-1H-pyrazolo[3,4-b]pyridin-4-yl)amino)methyl)-2-(trifluoromethyl)-benzenesulfonamide], the IC50 in test [1] is less than 0.1 µM; in test [2], 0.1 to 1 µM.
For the compound `COc1cc(S(N)(=O)=O)ccc1CNc1ccnc2c1cnn2C` [Example 2.63, 3-Methoxy-4-(((1-methyl-1H-pyrazolo[3,4-b]pyridin-4-yl)amino)methyl)benzenesulfonamide], the 50% inhibitory concentration (IC50) was 0.1 to 1 µM in test [1] and 1 to 20 µM in test [2].
Turning to `Cn1ncc2c(NCc3ccc(S(N)(=O)=O)cc3F)ccnc21` [Example 2.64, 3-Fluoro-4-(((1-methyl-1H-pyrazolo[3,4-b]pyridin-4-yl)amino)methyl)benzenesulfonamide], the IC50 in test [1] is less than 0.1 µM; in test [2], 0.1 to 1 µM.
The matching figures for `COc1cc(CNc2ccnc3c2cnn3C)ccc1S(N)(=O)=O` [Example 2.65, 2-Methoxy-4-(((1-methyl-1H-pyrazolo[3,4-b]pyridin-4-yl)amino)methyl)-benzenesulfonamide]: 1 to 20 µM and greater than 20 µM.
As for `Cn1ncc2c(NCc3ccc(S(N)(=O)=O)cc3)nccc21` [Example 2.66, 4-(((1-Methyl-1H-pyrazolo[4,3-c]pyridin-4-yl)amino)methyl)benzenesulfonamide], the 50% inhibitory concentration (IC50) in test [1] and in test [2] was 1 to 20 µM throughout.
With `Cn1ncc2c(NCc3ccc(S(N)(=O)=O)c(F)c3)ccnc21` [Example 2.67, 2-Fluoro-4-(((1-methyl-1H-pyrazolo[3,4-b]pyridin-4-yl)amino)methyl)benzenesulfonamide], the IC50 in test [1] is less than 0.1 µM; in test [2], 0.1 to 1 µM.
`Cn1ncc2c(NCc3ccc(S(N)(=O)=O)c(Cl)c3)ccnc21` [Example 2.68, 2-Chloro-4-(((1-methyl-1H-pyrazolo[3,4-b]pyridin-4-yl)amino)methyl)-benzenesulfonamide]: the half-maximal inhibitory concentration (IC50) in test [1] was in the range of 0.1 to 1 µM; in test [2], 1 to 20 µM.
Consider `Cc1cc(S(N)(=O)=O)ccc1CNc1ccnc2c1cnn2C` [Example 2.69, 3-Methyl-4-(((1-methyl-1H-pyrazolo[3,4-b]pyridin-4-yl)amino)methyl)-benzenesulfonamide], for which the values for the IC50 in test [1] and in test [2] were 0.1 to 1 µM and 1 to 20 µM, respectively.
As for `Cc1cc(CNc2ccnc3c2cnn3C)ccc1S(N)(=O)=O` [Example 2.70, 2-Methyl-4-(((1-methyl-1H-pyrazolo[3,4-b]pyridin-4-yl)amino)methyl)-benzenesulfonamide], the 50% inhibitory concentration (IC50) in test [1] was in the range of 0.1 to 1 µM; in test [2], 1 to 20 µM.
`Cn1ncc2c(NCc3ccc(S(N)(=O)=O)cn3)ccnc21` [Example 2.71, 6-(((1-Methyl-1H-pyrazolo[3,4-b]pyridin-4-yl)amino)methyl)pyridine-3-sulfonamide]: the 50% inhibitory concentration (IC50) is less than 0.1 µM in test [1] and 0.1 to 1 µM in test [2].
For the compound `Cn1ncc2c(NCc3ccc(S(N)(=O)=O)nc3)ccnc21` [Example 2.72, 5-(((1-Methyl-1H-pyrazolo[3,4-b]pyridin-4-yl)amino)methyl)pyridine-2-sulfonamide], the half-inhibitory concentration (IC50) in test [1] is less than 0.1 µM; in test [2], 0.1 to 1 µM.
As for `Cn1ncc2c(NCc3ccc(S(N)(=O)=O)cc3)cc(Cl)nc21` [Example 2.73, 4-(((6-Chloro-1-methyl-1H-pyrazolo[3,4-b]pyridin-4-yl)amino)methyl)benzenesulfonamide], the IC50 in test [1] and in test [2] was less than 0.1 µM each time.
Consider `CC(C)Nc1cc(NCc2ccc(S(N)(=O)=O)cc2)c2cnn(C)c2n1` [Example 2.74, 4-(((6-(Isopropylamino)-1-methyl-1H-pyrazolo[3,4-b]pyridin-4-yl)amino)methyl)benzenesulfonamide], for which the half-inhibitory concentration (IC50) in test [1] and in test [2] was 1 to 20 µM throughout.
`CCNc1cc(NCc2ccc(S(N)(=O)=O)cc2)c2cnn(C)c2n1` [Example 2.75, 4-(((6-(Ethylamino)-1-methyl-1H-pyrazolo[3,4-b]pyridin-4-yl)amino)methyl)-benzenesulfonamide]: the half-maximal inhibitory concentration (IC50) lay within 0.1 to 1 µM in test [1] and 1 to 20 µM in test [2].
Consider `CNc1cc(NCc2ccc(S(N)(=O)=O)cc2)c2cnn(C)c2n1` [Example 2.76, 4-(((1-Methyl-6-(methylamino)-1H-pyrazolo[3,4-b]pyridin-4-yl)amino)methyl)-benzenesulfonamide], for which the values for the IC50 in test [1] and in test [2] were 1 to 20 µM and 0.1 to 1 µM, respectively.
Take `Cn1ncc2c(NCc3ccc(S(N)(=O)=O)cc3)cc(N3CCCC3)nc21` [Example 2.77, 4-(((1-Methyl-6-(pyrrolidin-1-yl)-1H-pyrazolo[3,4-b]pyridin-4-yl)amino)methyl)-benzenesulfonamide]: the IC50 in test [1] lay within 1 to 20 µM; in test [2] it was 0.1 to 1 µM.
Regarding `Cn1ncc2c(NCc3ccc(S(N)(=O)=O)cc3)cc(N)nc21` [Example 2.78, 4-(((6-Amino-1-methyl-1H-pyrazolo[3,4-b]pyridin-4-yl)amino)methyl)-benzenesulfonamide], the IC50 in test [1] and in test [2] was 0.1 to 1 µM in each case.
As to `CCN(CC)c1cc(NCc2ccc(S(N)(=O)=O)cc2)c2cnn(C)c2n1` [Example 2.79, 4-(((6-(Diethylamino)-1-methyl-1H-pyrazolo[3,4-b]pyridin-4-yl)amino)methyl)-benzenesulfonamide], the IC50 was greater than 20 µM in test [1] and 1 to 20 µM in test [2].
With `CCCCNc1cc(NCc2ccc(S(N)(=O)=O)cc2)c2cnn(C)c2n1` [Example 2.80, 4-(((6-(Butylamino)-1-methyl-1H-pyrazolo[3,4-b]pyridin-4-yl)amino)methyl)-benzenesulfonamide], the half-inhibitory concentration (IC50) in test [1] and in test [2] was 1 to 20 µM throughout.
For the compound `Cn1ncc2c(NCc3ccc(S(N)(=O)=O)cc3)cc(NCCO)nc21` [Example 2.81, 4-(((6-((2-Hydroxyethyl)amino)-1-methyl-1H-pyrazolo[3,4-b]pyridin-4-yl)amino)methyl)-benzenesulfonamide], the half-inhibitory concentration (IC50) in test [1] and in test [2] was 1 to 20 µM each time.
With `Cn1ncc2c(NCc3ccc(S(N)(=O)=O)cc3)cc(N3CCOCC3)nc21` [Example 2.82, 4-(((1-Methyl-6-morpholino-1H-pyrazolo[3,4-b]pyridin-4-yl)amino)methyl)-benzenesulfonamide], the half-inhibitory concentration (IC50) in test [1] and in test [2] was 1 to 20 µM each time.
